The text below walks through data of patent publication US10472356B2, “Bicyclic ketone sulfonamide compounds” (AMGEN INC., priority 2015, dated 2019).

Bounds are passed on as bounds.

Broadly, the IC50 is the concentration needed to halve the response being measured.

Test [1] addresses T1, human Nav1.7 (Homo sapiens, UniProt Q15858).
T1 construct: expressed in transfected cells; host or cells: HEK293
Nature of the test: Nav 1.7 In Vitro PatchXpress (PX) Assay. The class given is cell-based. The settings on record: HEK 293 cells stably transfected with human Nav1.7; PatchXpress whole cell voltage clamp; partially inactivated state (holding potential yielding 20 to 50% inactivation); read-out: hNav1.7 PX IC50. The method in brief: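 Whole-cell voltage clamp on HEK 293 cells stably expressing human Nav1.7 (automated patch), holding potential giving 20–50% inactivation; 20 ms pulses to −10 mV at 0.1 Hz. Single compound concentration applied 3 min, peak current inhibition measured; IC50 fitted from 3–5 cells per concentration.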

Test [2] concerns the target T1, human Nav1.7. Nature of the test: Nav 1.7 IWB In Vitro Assay (IonWorks Barracuda). The class given is cell-based. The settings on record: HEK293 cells stably transfected with human Nav 1.7; IonWorks Barracuda population patch-clamp; cells clamped to −20 mV for 4 minutes with compound; 26th pulse; read-out: hNav1.7 IWB IC50. Here is the method: Nav 1.7 IWB In Vitro Assay
HEK293 cells stably transfected with human Nav 1.7 were recorded in population patch-clamp mode with the IonWorks© Barracuda (IWB) automated electrophysiology system (Molecular Devices, LLC, Sunnyvale, Calif.). From a holding potential of −110 mV, sodium currents were elicited by a train of 26 depolarizations of 150 ms duration to −20 mV at a frequency of 5 Hz. Cells were then clamped to −20 mV for a period of 4 minutes in the presence of a single concentration of test compound. Following this compound incubation period, cells were clamped to −110 mV for three seconds to recover unbound channels and put through the same 26 pulse voltage protocol as above. Peak inward current during the 26th pulse to −20 mV in the presence of compound was divided by the peak inward current evoked by the 26th pulse to −20 mV in the absence of compound to determine percent inhibition. Concentration-response curves of percent inhibition as a function of concentration were generated to calculate IC50 values.
Background: Patch clamp records ionic current or voltage across a cell membrane.

T1 sequence (Q15858 whole entry): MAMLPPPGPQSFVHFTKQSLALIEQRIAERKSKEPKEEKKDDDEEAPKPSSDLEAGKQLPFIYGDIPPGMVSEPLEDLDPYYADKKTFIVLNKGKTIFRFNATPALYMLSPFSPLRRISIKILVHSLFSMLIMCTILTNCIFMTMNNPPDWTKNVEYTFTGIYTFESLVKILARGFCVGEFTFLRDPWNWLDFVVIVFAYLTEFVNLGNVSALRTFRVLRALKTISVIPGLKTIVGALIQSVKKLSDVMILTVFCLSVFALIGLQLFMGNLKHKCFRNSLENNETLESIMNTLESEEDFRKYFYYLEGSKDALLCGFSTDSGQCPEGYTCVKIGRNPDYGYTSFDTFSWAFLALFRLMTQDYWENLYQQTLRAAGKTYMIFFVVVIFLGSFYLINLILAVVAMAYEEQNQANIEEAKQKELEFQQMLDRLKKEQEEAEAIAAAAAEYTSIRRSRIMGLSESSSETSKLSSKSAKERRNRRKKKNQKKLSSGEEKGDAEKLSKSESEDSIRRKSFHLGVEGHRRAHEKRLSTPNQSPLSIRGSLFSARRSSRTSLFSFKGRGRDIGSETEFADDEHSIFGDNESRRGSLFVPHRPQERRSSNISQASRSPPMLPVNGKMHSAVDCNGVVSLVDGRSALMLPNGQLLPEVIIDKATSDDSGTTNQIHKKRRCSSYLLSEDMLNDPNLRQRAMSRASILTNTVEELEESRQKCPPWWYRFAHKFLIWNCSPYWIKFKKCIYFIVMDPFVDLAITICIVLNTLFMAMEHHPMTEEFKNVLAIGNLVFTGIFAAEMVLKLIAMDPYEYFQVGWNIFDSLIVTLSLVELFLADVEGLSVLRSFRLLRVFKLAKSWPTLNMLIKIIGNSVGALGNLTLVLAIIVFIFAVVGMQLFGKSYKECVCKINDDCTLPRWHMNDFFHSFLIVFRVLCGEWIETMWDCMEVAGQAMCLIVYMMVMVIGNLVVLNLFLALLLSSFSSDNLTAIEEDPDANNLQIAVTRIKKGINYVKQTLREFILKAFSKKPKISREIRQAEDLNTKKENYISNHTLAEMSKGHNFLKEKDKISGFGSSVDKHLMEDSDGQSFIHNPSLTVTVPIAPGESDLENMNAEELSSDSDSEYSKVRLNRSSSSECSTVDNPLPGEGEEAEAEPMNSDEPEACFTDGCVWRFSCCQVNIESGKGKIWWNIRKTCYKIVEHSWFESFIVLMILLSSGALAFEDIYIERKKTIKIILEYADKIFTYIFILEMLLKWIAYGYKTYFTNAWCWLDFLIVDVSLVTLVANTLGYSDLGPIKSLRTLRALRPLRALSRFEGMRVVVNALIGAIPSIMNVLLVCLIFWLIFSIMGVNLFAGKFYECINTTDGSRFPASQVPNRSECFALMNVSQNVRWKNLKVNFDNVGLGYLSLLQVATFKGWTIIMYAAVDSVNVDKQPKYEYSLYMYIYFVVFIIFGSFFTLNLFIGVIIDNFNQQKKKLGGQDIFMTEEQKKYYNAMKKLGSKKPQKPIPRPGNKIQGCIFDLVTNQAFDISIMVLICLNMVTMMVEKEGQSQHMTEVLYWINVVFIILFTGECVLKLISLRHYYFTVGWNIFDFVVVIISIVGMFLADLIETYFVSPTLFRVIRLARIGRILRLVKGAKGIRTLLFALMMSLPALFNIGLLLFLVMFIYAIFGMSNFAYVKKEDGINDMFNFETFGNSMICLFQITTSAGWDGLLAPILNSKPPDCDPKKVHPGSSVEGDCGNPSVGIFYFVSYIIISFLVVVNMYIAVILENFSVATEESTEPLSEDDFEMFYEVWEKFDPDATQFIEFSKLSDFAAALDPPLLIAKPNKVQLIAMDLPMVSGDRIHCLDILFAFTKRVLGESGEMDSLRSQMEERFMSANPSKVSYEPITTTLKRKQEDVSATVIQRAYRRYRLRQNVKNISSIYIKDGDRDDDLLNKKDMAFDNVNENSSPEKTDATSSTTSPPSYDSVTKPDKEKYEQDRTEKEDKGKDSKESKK

Turning to `COc1cc(-c2ccc(F)c(F)c2)c(F)cc1-n1c2c(ccc1=O)CN(S(=O)(=O)Nc1ncccn1)CC2` (single isomer, unassigned) [Example 28-M, M-2-oxo-N-2-pyrimidinyl-1-(2,3′,4′-trifluoro-5-methoxy-4-biphenylyl)-1,5,7,8-tetrahydro-1,6-naphthyridine-6(2H)-sulfonamide], the IC50 on human Nav1.7 [1] was > 30000 nM; on human Nav1.7 [2], > 10000 nM.

On to `COc1cc(-c2cc(F)cc(Cl)c2)c(F)cc1-n1c2c(ccc1=O)CN(S(=O)(=O)Nc1cccc(F)n1)CC2` (single isomer, unassigned) [Example 13-M, M-1-(3′-chloro-2,5′-difluoro-5-methoxy-4-biphenylyl)-N-(6-fluoro-2-pyridinyl)-2-oxo-1,5,7,8-tetrahydro-1,6-naphthyridine-6(2H)-sulfonamide], for which the IC50 on human Nav1.7 [1] was 7550 nM; at human Nav1.7 [2], 983 nM.

In the case of `COc1cc(-c2cc(F)cc(F)c2)c(F)cc1-n1c2c(ccc1=O)[C@@H](C)N(S(=O)(=O)Nc1ccon1)CC2` [Example 3-A-P, P-(5R)-N-3-isoxazolyl-5-methyl-2-oxo-1-(2,3′,5′-trifluoro-5-methoxy-4-biphenylyl)-1,5,7,8-tetrahydro-1,6-naphthyridine-6(2H)-sulfonamide], the values for the IC50 at human Nav1.7 [1] and on human Nav1.7 [2] were > 1000 nM and 1200 nM, respectively.

Take `COc1cc(-c2ccc(F)c(C)c2)c(Cl)cc1-n1c2c(ccc1=O)CN(S(=O)(=O)Nc1cccnn1)CC2` (racemic) [Example 92-(Rac), (Rac)-1-(2-chloro-4′-fluoro-5-methoxy-3′-methyl-[1,1′-biphenyl]-4-yl)-2-oxo-N-(pyridazin-3-yl)-1,2,7,8-tetrahydro-1,6-naphthyridine-6(5H)-sulfonamide]: the IC50 on human Nav1.7 [1] was 63.5 nM; on human Nav1.7 [2], 23.6 nM.

Consider `COc1cc(-c2cc(F)cc(Cl)c2)c(Cl)cc1-n1c2c(ccc1=O)CN(S(=O)(=O)Nc1ccon1)CC2` [Example 53, P-1-(2,3′-dichloro-5′-fluoro-5-methoxy-4-biphenylyl)-N-3-isoxazolyl-2-oxo-1,5,7,8-tetrahydro-1,6-naphthyridine-6(2H)-sulfonamide], for which the 50% inhibitory concentration (IC50) is 5.2 nM on human Nav1.7 [1] and 0.7 nM on human Nav1.7 [2].

For the molecule `COc1cc(Cl)cc(-c2cc(OC)c(-n3c4c(ccc3=O)CN(S(=O)(=O)Nc3cccnn3)CC4)cc2F)c1` [Example 70, P-1-(3′-chloro-2-fluoro-5,5′-dimethoxy-[1,1′-biphenyl]-4-yl)-2-oxo-N-(pyridazin-3-yl)-1,2,7,8-tetrahydro-1,6-naphthyridine-6(5H)-sulfonamide], the IC50 turned out to be 20 nM at human Nav1.7 [1] and 6.2 nM at human Nav1.7 [2].

Consider `COc1cc(-c2cc(F)cc(Cl)c2)c(F)cc1-n1c2c(ccc1=O)CN(S(=O)(=O)Nc1ccon1)CC2` (single isomer, unassigned) [Example 18-M, M-1-(3′-chloro-2,5′-difluoro-5-methoxy-4-biphenylyl)-N-3-isoxazolyl-2-oxo-1,5,7,8-tetrahydro-1,6-naphthyridine-6(2H)-sulfonamide], for which the results for the IC50 on human Nav1.7 [1] and at human Nav1.7 [2] were 3560 nM and 567 nM, respectively.

Take `COc1cc(-c2cccc(Cl)c2)c(F)cc1-n1c2c(ccc1=O)CN(S(=O)(=O)Nc1cccnn1)CC2` [Example 62, P-1-(3′-chloro-2-fluoro-5-methoxy-[1,1′-biphenyl]-4-yl)-2-oxo-N-(pyridazin-3-yl)-1,2,7,8-tetrahydro-1,6-naphthyridine-6(5H)-sulfonamide]: the IC50 at human Nav1.7 [1] was 75.8 nM; on human Nav1.7 [2], 8.6 nM.

Take `COc1cc(-c2ccc(F)c(C)c2)c(F)cc1-n1c2c(ccc1=O)CN(S(=O)(=O)Nc1ccon1)CC2` (single isomer, unassigned) [Example 22-M, M-1-(2,4′-difluoro-5-methoxy-3′-methyl-4-biphenylyl)-N-3-isoxazolyl-2-oxo-1,5,7,8-tetrahydro-1,6-naphthyridine-6(2H)-sulfonamide]: the results for the IC50 at human Nav1.7 [1] and on human Nav1.7 [2] were > 30000 nM and > 10000 nM, respectively.

For the molecule `COc1cc(-c2ccc(F)c(F)c2)c(Cl)cc1-n1c2c(ccc1=O)CN(S(=O)(=O)Nc1ccon1)CC2` [Example 51, P-1-(2-chloro-3′,4′-difluoro-5-methoxy-4-biphenylyl)-N-3-isoxazolyl-2-oxo-1,5,7,8-tetrahydro-1,6-naphthyridine-6(2H)-sulfonamide], the IC50 at human Nav1.7 [1] is 45.1 nM; at human Nav1.7 [2], < 2 nM.

In the case of `COc1nc(-c2cc(F)cc(Cl)c2)c(F)cc1-n1c2c(ccc1=O)CN(S(=O)(=O)Nc1ccon1)CC2` (racemic) [Example 36, (Rac)-1-(6-(3-chloro-5-fluorophenyl)-5-fluoro-2-methoxy-3-pyridinyl)-N-3-isoxazolyl-2-oxo-1,5,7,8-tetrahydro-1,6-naphthyridine-6(2H)-sulfonamide], the IC50 was found to be 423 nM at human Nav1.7 [1] and 173 nM on human Nav1.7 [2].

Turning to `COc1cc(-c2cc(F)cc(F)c2)c(F)cc1-n1c2c(ccc1=O)CN(S(=O)(=O)Nc1ncon1)CC2` (single isomer, unassigned) [Example 17-M, M-N-1,2,4-oxadiazol-3-yl-2-oxo-1-(2,3′,5′-trifluoro-5-methoxy-4-biphenylyl)-1,5,7,8-tetrahydro-1,6-naphthyridine-6(2H)-sulfonamide], the IC50 was 292 nM at human Nav1.7 [1] and 34.3 nM on human Nav1.7 [2].

For the molecule `COc1ccc(Cl)cc1-c1cc(OC)c(-n2c3c(ccc2=O)CN(S(=O)(=O)Nc2cccnn2)CC3)cc1F` [Example 59, P-1-(5′-chloro-2-fluoro-2′,5-dimethoxy-[1,1′-biphenyl]-4-yl)-2-oxo-N-(pyridazin-3-yl)-1,2,7,8-tetrahydro-1,6-naphthyridine-6(5H)-sulfonamide], the IC50 was found to be 48.1 nM on human Nav1.7 [1] and 6.5 nM on human Nav1.7 [2].

Consider `COc1cc(-c2cc(C)cc(C(F)(F)F)c2)c(F)cc1-n1c2c(ccc1=O)CN(S(=O)(=O)Nc1cccnn1)CC2` [Example 75, P-1-(2-fluoro-5-methoxy-3′-methyl-5′-(trifluoromethyl)-[1,1′-biphenyl]-4-yl)-2-oxo-N-(pyridazin-3-yl)-1,2,7,8-tetrahydro-1,6-naphthyridine-6(5H)-sulfonamide], for which the IC50 at human Nav1.7 [1] was found to be 41.3 nM; at human Nav1.7 [2] it was 11.6 nM.

For the molecule `COc1cc(-c2cc(F)cc(F)c2)c(F)cc1-n1c2c(ccc1=O)CN(S(=O)(=O)Nc1ccon1)[C@@H](C)C2` (single isomer, unassigned) [Example 3-C-M], the IC50 on human Nav1.7 [1] is > 1000 nM; on human Nav1.7 [2], 8520 nM.

`COc1cc(-c2cccc(Cl)c2OC)c(F)cc1-n1c2c(ccc1=O)CN(S(=O)(=O)Nc1cccnn1)CC2` [Example 65, P-1-(3′-chloro-2-fluoro-2′,5-dimethoxy-[1,1′-biphenyl]-4-yl)-2-oxo-N-(pyridazin-3-yl)-1,2,7,8-tetrahydro-1,6-naphthyridine-6(5H)-sulfonamide]: the IC50 at human Nav1.7 [1] amounted to 251 nM; at human Nav1.7 [2], 8.5 nM.

Consider `COc1cc(-c2ccc(Cl)cc2)c(F)cc1-n1c2c(ccc1=O)CN(S(=O)(=O)Nc1cccnn1)CC2` [Example 61, P-1-(4′-chloro-2-fluoro-5-methoxy-[1,1′-biphenyl]-4-yl)-2-oxo-N-(pyridazin-3-yl)-1,2,7,8-tetrahydro-1,6-naphthyridine-6(5H)-sulfonamide], for which the IC50 on human Nav1.7 [1] is 195 nM; at human Nav1.7 [2], 24.1 nM.

As for `COc1cc(-c2ccc(F)c(F)c2)c(F)cc1-n1c2c(ccc1=O)CN(S(=O)(=O)Nc1ccon1)CC2` (single isomer, unassigned) [Example 20-M, M-N-3-isoxazolyl-2-oxo-1-(2,3′,4′-trifluoro-5-methoxy-4-biphenylyl)-1,5,7,8-tetrahydro-1,6-naphthyridine-6(2H)-sulfonamide], the IC50 on human Nav1.7 [1] was > 30000 nM; at human Nav1.7 [2], 2670 nM.

As for `COc1cc(-c2ccc(F)c(C)c2)c(C)cc1-n1c2c(ccc1=O)CN(S(=O)(=O)Nc1cccnn1)CC2` (single isomer, unassigned) [Example 93-M, M-1-(4′-fluoro-5-methoxy-2,3′-dimethyl-[1,1′-biphenyl]-4-yl)-2-oxo-N-(pyridazin-3-yl)-1,2,7,8-tetrahydro-1,6-naphthyridine-6(5H)-sulfonamide], the IC50 at human Nav1.7 [1] is 1800 nM; on human Nav1.7 [2], 270 nM.

Take `COc1cc(-c2ccc(F)c(C)c2)c(F)cc1-n1c2c(ccc1=O)CN(S(=O)(=O)Nc1ncccn1)CC2` (racemic) [Example 29-(Rac), (Rac)-1-(2,4′-difluoro-5-methoxy-3′-methyl-4-biphenylyl)-2-oxo-N-2-pyrimidinyl-1,5,7,8-tetrahydro-1,6-naphthyridine-6(2H)-sulfonamide]: the IC50 at human Nav1.7 [1] is 1170 nM; on human Nav1.7 [2], 122 nM.

In the case of `COc1cc(-c2cc(F)cc(F)c2)c(F)cc1-n1c2c(ccc1=O)[C@H](C)N(S(=O)(=O)Nc1ccon1)CC2` [Example 3-B-M, M-(5S)-N-3-isoxazolyl-5-methyl-2-oxo-1-(2,3′,5′-trifluoro-5-methoxy-4-biphenylyl)-1,5,7,8-tetrahydro-1,6-naphthyridine-6(2H)-sulfonamide], the IC50 on human Nav1.7 [1] was > 1000 nM; on human Nav1.7 [2] it was > 30000 nM.
